# Source: US12503453B2, “USP7 inhibition” (Dana-Farber Cancer Institute, Inc., priority 2018, dated 2025)
# Like-named read-outs stand apart in the source and are kept apart here.
# What was measured:
# TC32 cells = assay: Drug synergy analysis (Chou-Talalay combination index), TC32; format: cell-based
# From the text: (§1) Loewe Additivity is a dose-effect approach that estimates the effect of combining two drugs based on the concentration of each individual drug that produces the same quantitative effect (Goldoni and Johansson, 2007). […] They introduced the combination index (CI) scores to estimate the interaction between the two drugs.
# MCF7 cells [1] = assay: Drug synergy analysis (Chou-Talalay combination index), MCF7; format: cell-based
# From the text: as §1, with “drugs. If CI<1, the drugs have a synergistic effect, and if CI>1, the drugs have an antagonistic effect. CI=1 means the drugs have an additive effect.” for “drugs.”
# [2] = system: MDM2-p53 signaling axis in MCF7 cells; assay: Whole cell lysate Western blots of MCF7 cells (MDM2-p53 signaling axis); format: cell-based; details: wild-type TP53
# MCF7 cells [3] = assay: Cell cycle analysis by propidium iodide staining; format: cell-based; details: 1 μM, 24 hours
# Description: For propidium iodide (PI) staining, treated cells (˜1 million per condition) were washed with cold PBS, then fixed in 80% ethanol overnight at −20° C. After fixing, cells were pelleted, washed with PBS, and reconstituted in 500 μL FxCycle PI/RNAse A staining solution (Thermo Fisher). Cells were stored overnight at 4° C. and analyzed using a BD Fortessa flow cytometer.
# MCF7 cells [4] = assay: Transcriptome profiling, 3' Digital Gene Expression RNA-seq; format: cell-based; details: 24 hours, low or high doses
# From the text: Overall, transcripts were detected for 7000-10,000 genes (7276 genes detected across all conditions).
# The same report had also identified a set of dimerization partner, Retinoblastoma-like, E2F and multi-vulval class B (DREAM) complex target genes by combining p53 repression data (generated in part with Nutlin-3A-treated MCF7 cells) with cell cycle expression and DREAM component binding.
# [5] = system: Ewing sarcoma cell lines, TP53 WT and mutant; assay: Cell proliferation (CellTiter-Glo), panel of Ewing sarcoma cell lines; format: cell-based; details: same set of cell lines
# Description: Cells were plated in 384-well culture-treated plates and allowed to settle overnight. After drug treatment and appropriate incubation time, cell viability was assessed using the CellTiter-Glo Luminescent Cell Viability Assay (Promega). Luminescence was read on a Fluostar Omega Reader (BMG Labtech).
# full length USP7 = full length USP7 (Homo sapiens (Human), UniProt Q93009); assay: Ub-AMC enzymatic assay with full-length USP7; format: biochemical; details: for IC50: 6 hours pre-incubation, Ub-AMC
# full length USP7, sequence (Q93009 whole entry): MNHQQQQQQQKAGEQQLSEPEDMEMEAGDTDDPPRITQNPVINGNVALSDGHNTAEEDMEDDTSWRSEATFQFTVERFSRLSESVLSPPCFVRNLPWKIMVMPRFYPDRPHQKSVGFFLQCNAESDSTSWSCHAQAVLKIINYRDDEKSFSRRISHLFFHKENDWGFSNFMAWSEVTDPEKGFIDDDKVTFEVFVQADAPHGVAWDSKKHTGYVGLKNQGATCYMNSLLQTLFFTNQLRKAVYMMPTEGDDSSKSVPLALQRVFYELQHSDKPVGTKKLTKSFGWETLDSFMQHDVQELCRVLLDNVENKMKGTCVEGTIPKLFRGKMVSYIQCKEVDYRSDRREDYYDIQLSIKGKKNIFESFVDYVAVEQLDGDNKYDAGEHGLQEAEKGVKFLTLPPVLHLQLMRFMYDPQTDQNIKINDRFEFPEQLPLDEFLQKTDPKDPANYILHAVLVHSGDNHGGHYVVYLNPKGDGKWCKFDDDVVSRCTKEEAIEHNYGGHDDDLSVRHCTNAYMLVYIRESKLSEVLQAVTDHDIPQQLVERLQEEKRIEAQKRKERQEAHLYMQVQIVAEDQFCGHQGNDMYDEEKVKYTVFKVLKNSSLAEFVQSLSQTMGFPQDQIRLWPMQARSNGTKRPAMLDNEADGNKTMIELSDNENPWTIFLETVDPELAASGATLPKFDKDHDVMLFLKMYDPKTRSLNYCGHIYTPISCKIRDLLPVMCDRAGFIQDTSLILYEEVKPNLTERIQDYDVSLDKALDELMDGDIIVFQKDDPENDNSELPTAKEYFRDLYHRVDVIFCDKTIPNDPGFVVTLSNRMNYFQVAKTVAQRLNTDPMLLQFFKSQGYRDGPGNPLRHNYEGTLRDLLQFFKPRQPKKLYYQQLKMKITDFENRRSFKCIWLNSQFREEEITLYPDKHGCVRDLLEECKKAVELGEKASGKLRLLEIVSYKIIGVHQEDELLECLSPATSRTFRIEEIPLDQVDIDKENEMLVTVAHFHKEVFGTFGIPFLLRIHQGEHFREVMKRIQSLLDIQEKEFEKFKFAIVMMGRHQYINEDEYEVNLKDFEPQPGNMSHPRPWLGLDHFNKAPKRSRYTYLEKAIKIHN
# Description: Both constructs were overexpressed in E. coli BL21 (DE3). Cells were grown at 37° C. to an OD of 0.9, cooled to 16° C., induced with 500 μM isopropyl-1-thio-D-galactopyranoside (IPTG), incubated overnight at 16° C., collected by centrifugation, and stored at −80° C. Cell pellets were sonicated in lysis buffer (25 mM Tris pH 8, 1 M NaCl, and 10 mM BME) supplemented with 10 μg/ml phenylmethanesulfonylfluoride (PMSF) and the resulting lysate was centrifuged at 30,000×g for 40 min. Ni-NTA beads (Qiagen) were mixed with lysate supernatant for 2 hours, and washed with lysis buffer supplemented with 25 mM imidazole. The bound protein was eluted with lysis buffer supplemented with 300 mM imidazole. The sample was then concentrated to 1 ml (30 kDa concentrator; Amicon Ultra, Millipore), and run on a Superdex 200 (GE healthcare) in buffer containing 25 mM HEPES pH 7.5, 200 mM NaCl, and 1 mM DTT. Fractions were pooled, concentrated and frozen at −80° C.
# Full length USP7 was tested for its activity in Ubiquitin-AMC assay in presence or absence of inhibitors. USP7 (5 nM) was pre-incubated for 6 hours at room temperature with different concentrations of inhibitors or DMSO as a control in 50 mM HEPES pH 7.5, 0.5 mM EDTA, 11 μM ovalbumin, and 5 mM DTT. Ubiquitin-AMC (Boston Biochem) was then added to a final concentration of 500 nM. The initial rate of the reaction was measured by collecting fluorescence data at one minute intervals over 30-minute period using a Clariostar fluorescence plate reader at excitation and emission wavelength of 345 and 445 nm respectively. The calculated initial rate values were plotted against inhibitor concentrations to determine IC50s. All the experimental data were plotted using Prism GraphPad. All assays for each compound were performed at least twice for each compound.
# USP7 catalytic domain = USP7 catalytic domain (Homo sapiens (Human), UniProt Q93009); assay: MS labeling of purified USP7 catalytic domain (intact MS, CE-MS); format: binding; details: 15 minutes incubation
# USP7 catalytic domain, sequence (Q93009 208-560): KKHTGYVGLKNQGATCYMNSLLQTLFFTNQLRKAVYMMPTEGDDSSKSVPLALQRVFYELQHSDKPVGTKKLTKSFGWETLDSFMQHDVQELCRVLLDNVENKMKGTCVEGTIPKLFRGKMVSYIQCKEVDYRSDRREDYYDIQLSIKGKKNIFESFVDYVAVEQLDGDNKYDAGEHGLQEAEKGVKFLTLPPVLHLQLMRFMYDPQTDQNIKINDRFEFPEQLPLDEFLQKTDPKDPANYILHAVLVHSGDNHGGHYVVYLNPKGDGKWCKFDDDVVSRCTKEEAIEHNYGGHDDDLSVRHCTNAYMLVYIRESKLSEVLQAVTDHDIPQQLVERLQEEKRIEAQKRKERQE
# Description: Purified USP7 catalytic domain was diluted to 20 μM in 10 μL labeling buffer (20 mM HEPES pH 7.5, 150 mM NaCl, 1 mM TCEP) and incubated for the indicated times with 50 μM (2.5×) compound. After incubation, samples were flash frozen in liquid nitrogen and stored at −80° C. until analysis.
# Intact mass analysis was performed by injecting 5 μg USP7 catalytic domain onto a self-packed reversed phase column ( 1/32″ O.D.×500 um I.D., 5 cm of POROS 10R2 resin). After desalting, protein was eluted with an HPLC gradient (0-100% B in 4 minutes, A=0.2M acetic acid in water, B=0.2 M acetic acid in acetonitrile, flow rate ˜30 μL/min) into an LTQ ion trap mass spectrometer (ThermoFisher Scientific, San Jose, CA). Mass spectra were deconvoluted using MagTran1.03b2 software. Zhang, Z. & Marshall, A. G. A universal algorithm for fast and automated charge state deconvolution of electrospray mass-to-charge ratio spectra. J. Am. Soc. Mass Spectrom. 9, 225-233 (1998).
# To identify sites of covalent modification, treated protein was reduced (10 mM dithiothreitol), alkylated (22.5 mM iodoacetamide), and digested with trypsin overnight at 37° C. Peptides were desalted using SP3 (Hughes, C. S. et al. Ultrasensitive proteome analysis using paramagnetic bead technology. Mol. Syst. Biol. 10, 757-757 (2014)), dried by vacuum centrifugation, and reconstituted in 1% formic acid/50% acetonitrile with 100 mM ammonium acetate. Peptides were then analyzed by CE-MS using a ZipChip CE system and autosampler (908 Devices, Boston, MA) interfaced to a QExactive HF mass spectrometer (ThermoFisher Scientific, San Jose, CA). Peptide solution was loaded for 30 seconds, and the mass spectrometer was operated in data dependent mode and subjected the 5 most abundant ions in each MS scan (60 k resolution, 3E6 target, lock mass enabled) to MS/MS (15 k resolution, 1E5 target, 100 ms max inject time). Dynamic exclusion was enabled with a repeat count of 1 and an exclusion time of 6 seconds. […]
# [6] = Table 1, read-out: IC50 (nM), USP7 activity in USP7 assay
# [7] = Table 3, read-out: IC50 (μM), USP7 activity in USP7 assay
smiles,measurement,setting,value
COc1cccc2c1C(=O)c1c(O)c3c(c(O)c1C2=O)C[C@@](O)(C(=O)CO)C[C@@H]3O[C@H]1C[C@H](N)[C@H](O)[C@H](C)O1 [doxorubicin],combination index with compound 6,TC32 cells,< 0.6
same,interaction in combination with compound 6,MCF7 cells [1],mixed synergy and antagonism
"CN1CCN(CCC(=O)Nc2ccc3c(=O)n(CC4(O)CCN(C(=O)[C@H](CCCNC(=O)c5ccc6c(Cl)c7c(nc6c5)CCCC7)Cc5ccccc5)CC4)cnc3c2)CC1 [compound 7, (R)-N-(4-benzyl-5-(4-hydroxy-4-((7-(3-(4-methylpiperazin-1-yl)propanamido)-4-oxoquinazolin-3(4H)-yl)methyl)piperidin-1-yl)-5-oxopentyl)-9-chloro-5,6,7,8-tetrahydroacridine-3-carboxamide]",MDM2 protein level,[2],did not exert any of the same effects
same,cell cycle effect,MCF7 cells [3],did not exert any of the same effects
same,transcriptional profile,MCF7 cells [4],highly correlated with the vehicle (DMSO)-treated control cells
COc1cc(C(=O)O)ccc1NC(=O)[C@@H]1N[C@@H](CC(C)(C)C)[C@](C#N)(c2ccc(Cl)cc2F)[C@H]1c1cccc(Cl)c1F [RG7388],combination index with compound 6,TC32 cells,< 0.6
CCc1c(-c2ccc3[nH]ncc3c2)cnc(N)c1-c1ccc(O)cc1 [GNE6640],specificity for TP53-WT expressing cells,[5],little to no specificity for TP53-WT expressing cells
CN1CCN(CCC(=O)Nc2ccc3c(=O)n(CC4(O)CCN(C(=O)CCNC(=O)c5ccc6c(Cl)c7c(nc6c5)CCCC7)CC4)cnc3c2)CC1,IC50,full length USP7; [6],100 to 1000 nM
CN1CCN(CCC(=O)Nc2ccc3c(=O)n(CC4(O)CCN(C(=O)C(CCCNC(=O)c5ccc6c(Cl)c7c(nc6c5)CCCCC7)Cc5ccccc5)CC4)cnc3c2)CC1 (stereo not shown),IC50,full length USP7; [6],< 20 nM
"CN1CCN(CCC(=O)Nc2ccc3c(=O)n(CC4(O)CCN(C(=O)C(CCCNC(=O)c5ccc6cc7c(nc6c5)CCCC7)Cc5ccccc5)CC4)cnc3c2)CC1 (stereo not shown) [compound 40, N-(4-benzyl-5-(4-hydroxy-4-((7-(3-(4-methylpiperazin-1-yl)propanamido)-4-oxoquinazolin-3(4H)-yl)methyl)piperidin-1-yl)-5-oxopentyl)-5,6,7,8-tetrahydroacridine-3-carboxamide]",IC50 against USP7 (range in words),"full length USP7; full-length USP7, Ub-AMC",nanomolar range
same,labeling of USP7 catalytic domain by MS,USP7 catalytic domain,unable to label the USP7 catalytic domain
Cc1ncc(Cl)cc1NCc1ccc(C(=O)N[C@@H](CC2CCCC2)C(=O)NC2CC2)s1 [GSK2830371],combination index with compound 6,TC32 cells,< 0.6
same,interaction in combination with compound 6,MCF7 cells [1],mixed synergy and antagonism
CN1CCN(CCC(=O)Nc2ccc3c(=O)n(CC4(O)CCN(C(=O)C(CCCNC(=O)c5ccc6c(Cl)c7c(nc6c5)CCCC7)Cc5ccccc5)CC4)cnc3c2)CC1 (stereo not shown),IC50,full length USP7; [6],< 20 nM
CN1CCN(CCC(=O)Nc2ccc3c(=O)n(CC4(O)CCN(C(=O)CCCCCNC(=O)c5ccc6nc7c(c(Cl)c6c5)CCCC7)CC4)cnc3c2)CC1,IC50,full length USP7; [6],20 to 100 nM
CN1CCN(CCC(=O)Nc2ccc3c(=O)n(CC4(O)CCN(C(=O)[C@H](Cc5ccccc5)NC(=O)CN(C)C(=O)c5ccc6c(Cl)c7c(nc6c5)CCCC7)CC4)cnc3c2)CC1,IC50,full length USP7; [6],< 20 nM
CN1CCN(CCC(=O)Nc2ccc3c(=O)n(CC4(O)CCN(C(=O)C(CCCNC(=O)c5ccc6c(Cl)cc(-c7ccccc7)nc6c5)Cc5ccccc5)CC4)cnc3c2)CC1 (stereo not shown),IC50,full length USP7; [7],100 to 1000 nM
O=C(CCN1CCOCC1)Nc1ccc2c(=O)n(CC3(O)CCN(C(=O)[C@@H](CCCNC(=O)c4ccc(/C=C/C(=O)N5CCCCC5)nc4)Cc4ccccc4)CC3)cnc2c1,IC50,full length USP7; [6],> 1000 nM
CN1CCN(c2cccc3c(=O)n(CC4(O)CCN(C(=O)[C@@H](CCCNC(=O)c5ccc6c(Cl)c7c(nc6c5)CCCC7)Cc5ccccc5)CC4)cnc23)CC1,IC50,full length USP7; [7],20 to 100 nM
O=C(CCN1CCOCC1)Nc1ccc2c(=O)n(CC3(O)CCN(C(=O)CCCCNC(=O)c4ccc5c(Cl)c6c(nc5c4)CCCC6)CC3)cnc2c1,IC50,full length USP7; [6],100 to 1000 nM
CN1CCN(CCC(=O)Nc2ccc3c(=O)n(CC4(O)CCN(C(=O)C(CCCNC(=O)c5ccc6c(Cl)c7c(nc6c5)CCC7)Cc5ccccc5)CC4)cnc3c2)CC1 (stereo not shown),IC50,full length USP7; [6],< 20 nM
CN1CCN(CCC(=O)Nc2ccc3c(=O)n(CC4(O)CCN(C(=O)[C@@H](Cc5ccccc5)NC(=O)CNC(=O)c5ccc6c(Cl)ccnc6c5)CC4)cnc3c2)CC1,IC50,full length USP7; [7],20 to 100 nM
CN1CCN(CCC(=O)Nc2ccc3c(=O)n(CC4(O)CCN(C(=O)C(CCCNC(=O)c5ccc6c(Cl)cc(C7CCCCC7)nc6c5)Cc5ccccc5)CC4)cnc3c2)CC1 (stereo not shown),IC50,full length USP7; [7],20 to 100 nM
COc1cccc(CC(CCCNC(=O)c2ccc3c(Cl)c4c(nc3c2)CCCC4)C(=O)N2CCC(O)(Cn3cnc4cc(NC(=O)CCN5CCN(C)CC5)ccc4c3=O)CC2)c1 (stereo not shown),IC50,full length USP7; [7],> 1000 nM
COc1cc([C@@H]2c3cc4c(cc3[C@@H](O[C@@H]3O[C@@H]5CO[C@@H](C)O[C@H]5[C@H](O)[C@H]3O)[C@H]3COC(=O)[C@H]23)OCO4)cc(OC)c1O [etoposide],interaction in combination with compound 6,MCF7 cells [1],mixed synergy and antagonism
